Source: patent US8541449B2, “Substituted isoquinolines and isoquinolinones as Rho kinase inhibitors” (Sanofi, priority 2008, dated 2013)

Columns and labels:
Type in all cases: biochemical
[1] = target: T1, human recombinant ROCK II (Homo sapiens, UniProt O75116); assay: Determination of Rho kinase inhibition (Caliper peptide phosphorylation assay); details: 60 min at 32° C., negative decadal logarithm of the IC50
T1 construct: N-terminal His6-tagged recombinant human ROCK-II residues 11-552; His6 (N); purchased Millipore GmbH, Schwalbach, Germany
In short: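 His6-tagged human ROCK II (residues 11-552) phosphorylated a fluorescein-labelled peptide for 60 min at 32° C in Tris-HCl pH 7.4 with MgCl2, DTT and BSA, using 3 μM peptide and 120 μM ATP as diluted stocks. EDTA-stopped; phosphopeptide separated and detected by Caliper mobility shift; IC50 determined.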

recombinant human PKA = target: T2, recombinant human PKA (Homo sapiens, UniProt P17612); assay: Determination of Protein Kinase A inhibition (Caliper peptide phosphorylation assay); details: recombinant human PKA versus ROCK II
T2 construct: Active recombinant human PKA (residues 1-351, N-terminal His-tag); His-tag (N); purchased Invitrogen, Karlsruhe, Germany
In short: (§1)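 Full-length His-tagged PKG1-beta (150 ng/ml working) or His-tagged PKA residues 1-351 (30 ng/ml working) was mixed with compound in pH 7.4 Tris/MgCl2/DTT buffer. Fluorescein-peptide substrate and ATP (3 μM and 120 μM working) were then added for 60 min at 32 °C before an EDTA stop. Phosphopeptide was separated electrophoretically on a Caliper instrument to derive IC50.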

[2] = target: T3, recombinant human PKG1-beta (Homo sapiens, UniProt Q13976); assay: Determination of Protein Kinase G inhibition (Caliper peptide phosphorylation assay); details: recombinant human PKG1-beta versus ROCK II
T3 construct: Active recombinant human PKG1-beta (full-length, with N-terminal His-tag); His-tag (N); purchased Millipore GmbH, Schwalbach, Germany
T3 sequence (Q13976 1-686 isoform Q13976-2): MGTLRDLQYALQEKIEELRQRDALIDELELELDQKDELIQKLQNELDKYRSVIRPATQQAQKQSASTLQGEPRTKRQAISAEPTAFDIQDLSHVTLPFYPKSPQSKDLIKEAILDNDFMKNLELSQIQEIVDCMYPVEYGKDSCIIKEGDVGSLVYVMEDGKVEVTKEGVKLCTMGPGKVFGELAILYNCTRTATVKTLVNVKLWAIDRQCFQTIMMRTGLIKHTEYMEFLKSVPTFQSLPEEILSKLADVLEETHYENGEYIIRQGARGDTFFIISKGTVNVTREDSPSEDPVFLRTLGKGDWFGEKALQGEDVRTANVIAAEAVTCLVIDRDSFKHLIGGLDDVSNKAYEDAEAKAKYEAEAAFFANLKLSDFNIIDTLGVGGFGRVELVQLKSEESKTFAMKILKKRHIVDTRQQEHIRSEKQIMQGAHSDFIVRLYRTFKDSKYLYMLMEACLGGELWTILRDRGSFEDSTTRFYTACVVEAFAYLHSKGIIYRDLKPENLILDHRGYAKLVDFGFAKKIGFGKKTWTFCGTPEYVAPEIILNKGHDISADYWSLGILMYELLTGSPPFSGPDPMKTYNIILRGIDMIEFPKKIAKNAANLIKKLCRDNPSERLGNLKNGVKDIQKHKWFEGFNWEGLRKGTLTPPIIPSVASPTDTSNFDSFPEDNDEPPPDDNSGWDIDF
In short: as §1

T1 sequence (O75116 11-552): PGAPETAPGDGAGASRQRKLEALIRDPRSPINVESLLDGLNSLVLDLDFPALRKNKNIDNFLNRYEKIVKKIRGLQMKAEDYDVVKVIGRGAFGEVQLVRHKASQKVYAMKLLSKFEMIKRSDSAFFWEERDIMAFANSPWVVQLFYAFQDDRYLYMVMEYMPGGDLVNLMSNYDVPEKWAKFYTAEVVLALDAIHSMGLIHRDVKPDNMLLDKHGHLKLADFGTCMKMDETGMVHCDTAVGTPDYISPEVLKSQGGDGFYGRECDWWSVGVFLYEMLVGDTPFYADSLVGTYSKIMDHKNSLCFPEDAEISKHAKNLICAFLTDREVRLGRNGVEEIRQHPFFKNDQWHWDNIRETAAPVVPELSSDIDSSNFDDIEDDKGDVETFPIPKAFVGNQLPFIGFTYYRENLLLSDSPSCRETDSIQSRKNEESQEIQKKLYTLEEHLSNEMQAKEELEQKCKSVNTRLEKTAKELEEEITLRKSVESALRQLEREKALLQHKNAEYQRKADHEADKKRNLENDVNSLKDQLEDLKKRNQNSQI

CCCC(N)[C@]1(c2ccc(F)cc2)CC[C@@H](Oc2cc3cc[nH]c(=O)c3cc2Cl)CC1 (stereo partly drawn) [Example 12, trans-6-[4-(1-Amino-butyl)-4-(4-fluoro-phenyl)-cyclohexyloxy]-7-chloro-2H-isoquinolin-1-one]
pIC50 [1]: +++++ (6.0≦pIC50<7.0) | Selectivity against PKA (recombinant human PKA): >100 | Selectivity against PKG [2]: >10

CC(N)[C@]1(c2ccc(F)cc2)CC[C@@H](Oc2cc3cc[nH]c(=O)c3cc2Cl)CC1 (stereo partly drawn) [Example 13, trans-6-[4-(1-Amino-ethyl)-4-(4-fluoro-phenyl)-cyclohexyloxy]-7-chloro-2H-isoquinolin-1-one]
pIC50 [1]: ++++++ (7.0≦pIC50<8.0) | Selectivity against PKA (recombinant human PKA): >300 | Selectivity against PKG [2]: >100

CCCC(N)[C@]1(c2ccccc2)CC[C@@H](Oc2cc3cc[nH]c(=O)c3cc2Cl)CC1 (stereo partly drawn) [Example 14, trans-6-[4-(1-Amino-butyl)-4-phenyl-cyclohexyloxy]-7-chloro-2H-isoquinolin-1-one]
pIC50 [1]: +++++ (6.0≦pIC50<7.0) | Selectivity against PKA (recombinant human PKA): >100 | Selectivity against PKG [2]: >100

CC(N)[C@]1(c2ccc(F)cc2)CC[C@H](Oc2cc3cc[nH]c(=O)c3cc2Cl)CC1 (stereo partly drawn) [Example 15, cis-6-[4-(1-Amino-ethyl)-4-(4-fluoro-phenyl)-cyclo-hexyloxy]-7-chloro-2H-iso quinolin-1-one]
pIC50 [1]: +++++++ (8.0≦pIC50) | Selectivity against PKA (recombinant human PKA): >1000 | Selectivity against PKG [2]: >300

CCC(N)[C@]1(c2cccc(Br)c2)CC[C@@H](Oc2cc3cc[nH]c(=O)c3cc2Cl)CC1 (stereo partly drawn) [Example 16, trans-6-[4-(1-Amino-propyl)-4-(3-bromo-phenyl)-cyclohexyloxy]-7-chloro-2H-iso quinolin-1-one]
pIC50 [1]: ++++++ (7.0≦pIC50<8.0) | Selectivity against PKA (recombinant human PKA): >300 | Selectivity against PKG [2]: >100

CCC(N)[C@]1(c2cccc(OC)c2)CC[C@@H](Oc2cc3cc[nH]c(=O)c3cc2Cl)CC1 (stereo partly drawn) [Example 17, trans-6-[4-(1-Amino-propyl)-4-(3-methoxy-phenyl)-cyclohexyloxy]-7-chloro-2H-iso quinolin-1-one]
pIC50 [1]: ++++++ (7.0≦pIC50<8.0) | Selectivity against PKA (recombinant human PKA): >300 | Selectivity against PKG [2]: >100

CC(C)C(N)[C@]1(c2ccccc2)CC[C@@H](Oc2cc3cc[nH]c(=O)c3cc2Cl)CC1 (stereo partly drawn) [Example 19, trans-6-[4-(1-Amino-2-methyl-propyl)-4-phenyl-cyclohexyloxy]-7-chloro-2H-iso quinolin-1-one]
pIC50 [1]: +++++ (6.0≦pIC50<7.0) | Selectivity against PKA (recombinant human PKA): >100 | Selectivity against PKG [2]: >100

CC(C)CC(N)[C@]1(c2ccccc2)CC[C@@H](Oc2cc3cc[nH]c(=O)c3cc2Cl)CC1 (stereo partly drawn) [Example 20, trans-6-[4-(1-Amino-3-methyl-butyl)-4-phenyl-cyclohexyloxy]-7-chloro-2H-iso quinolin-1-one]
pIC50 [1]: ++++++ (7.0≦pIC50<8.0) | Selectivity against PKA (recombinant human PKA): >100 | Selectivity against PKG [2]: >100

CC(C)(N)[C@]1(c2ccc(F)cc2)CC[C@@H](Oc2cc3cc[nH]c(=O)c3cc2Cl)CC1 [Example 22, trans-6-[4-(1-Amino-1-methyl-ethyl)-4-(4-fluoro-phenyl)-cyclohexyloxy]-7-chloro-2H-iso quinolin-1-one]
pIC50 [1]: ++++++ (7.0≦pIC50<8.0) | Selectivity against PKA (recombinant human PKA): >300 | Selectivity against PKG [2]: >100

CC(N)[C@]1(c2ccccc2)CC[C@H](Oc2cc3cc[nH]c(=O)c3cc2Cl)CC1 (stereo partly drawn) [Example 24, cis-6-[4-(1-Amino-ethyl)-4-phenyl-cyclohexyloxy]-7-chloro-2H-iso quinolin-1-one]
pIC50 [1]: +++++++ (8.0≦pIC50) | Selectivity against PKA (recombinant human PKA): >1000 | Selectivity against PKG [2]: >300

CC(C)(N)[C@]1(c2ccccc2)CC[C@H](Oc2cc3cc[nH]c(=O)c3cc2Cl)CC1 [Example 25, cis-6-[4-(1-Amino-1-methyl-ethyl)-4-phenyl-cyclo-hexyloxy]-7-chloro-2H-iso quinolin-1-one]
pIC50 [1]: +++++++ (8.0≦pIC50) | Selectivity against PKA (recombinant human PKA): >1000 | Selectivity against PKG [2]: >100
